No end group written: not given here.
System: PC12 cells
Assay: Neuritogenesis in PC12 cells
Type: cell-based, rat
Settings: for enhancement of NGF-induced neurite outgrowth: in the presence of NGF, 48 hours; for neurite outgrowth in the absence of NGF: compound alone; for effect of inhibitor on NGF neuritogenic activity / effect on neuritogenic properties of the NO donors: PC12 cells with NGF; for effect of inhibitor on neuritogenic effects of guanosine: PC12 cells with guanosine and NGF
Protocol: Much of the work performed in the characterization of the compounds of the present invention involved the use of PC12 cells. These cells are derived from a rat pheochromocytoma and when grown in the presence of NGF, extend neurites, cease cell division and assume many characteristics of sympathetic neurons. When cultured in the absence of nerve growth factor (NGF), few PC12 cells have neurites greater than one cell diameter. Addition of saturating concentrations of NGF for 48 hours stimulates neurite outgrowth in about 20-35% of the cells. Because they constitute a homogeneous population of neuronal-like cells, without contaminating astroglia type cells, it is possible to study the direct effects of the purine based compounds on neurite outgrowth in these cells.
Cells cultured in RPMI 1640 with 1.5% horse serum and 1.5% fetal bovine serum were re-plated onto poly-ornithine coated 24-well culture plates (2.5×10^4 cells per well). AIT-082 and NGF were added to the various cultures immediately upon plating. After 48 hours, medium was removed and the cells irnmediately fixed in 10% formalin and PBS for 10 minutes. Cells and neurites were counted within 2 days of fixation.
A neurite was defined as a process extending from the cell at least 1 cell body diameter in length and displaying a growth cone at its tip. For each treatment, 2 representative microscope fields were counted from each of 6 sister cultures receiving identical treatments. The total number of cells counted per well (approximately 100 cells) and the total number of cells containing neurites in each well were used to determine fraction of neurite-bearing cells. The mean values (±SEM) were then determined for each of the treatments. To facilitate comparison neurite outgrowth was expressed relative to the proportion of cells bearing neurites in the presence of NGF alone (NGF=100%). The effects of compounds with and without NGF were compared by analysis of variance (ANOVA) followed by Tukey's test for significance.
The results are shown in FIG. 3 where the curve represents different levels of AIT-082 plus saturating concentrations (40 ng/ml) NGF. The center horizontal line represents control values for cells cultured in the presence of 40 ng/ml NGF alone. Upper and lower horizontal lines are indicative of confidence limits of NGF alone as determined using standard statistical methods.

CCOC(=O)CCn1cnc2c(N)ncnc21 [AIT-0026, 3-(6-amino-9H-purin-9-yl)propionic acid, ethyl ester]
modification of neural activity: failed to modify neural activity

O=C(CCn1cnc2c(=O)[nH]cnc21)NCCCN1CCCC1=O [AIT-034, 3-(1,6 dihydro-6-oxo-9hpurin-9-yl)-N-(3-(2-oxopyrrolidin-1-yl)propyl) propanamide]
modification of neural activity: failed to modify neural activity
enhancement of NGF-induced neurite outgrowth: did not enhance NGF-induced neuritogenesis

Nc1ncnc2c1ncn2[C@@H]1O[C@H](COP(=O)(O)OP(=O)(O)OP(=O)(O)O)[C@@H](O)[C@H]1O [ATP, adenosine triphosphate]
neurite outgrowth in the absence of NGF: did not enhance neuritogenesis
enhancement of NGF-induced neurite outgrowth: did not enhance neuritogenesis

Nc1nc2c(ncn2[C@@H]2O[C@H](COP(=O)(O)OP(=O)(O)O)[C@@H](O)[C@H]2O)c(=O)[nH]1 [GDP, guanosine diphosphate]
enhancement of NGF-induced neurite outgrowth: neither GDP nor GMP were effective alone or with NGF

Nc1nc2c(ncn2[C@@H]2O[C@H](COP(=O)(O)O)[C@@H](O)[C@H]2O)c(=O)[nH]1 [GMP, guanosine monophosphate]
enhancement of NGF-induced neurite outgrowth: neither GDP nor GMP were effective alone or with NGF

O=C1C(Nc2ccccc2)=CC(=O)c2ncccc21 [LY83583]
effect of inhibitor on NGF neuritogenic activity: the response elicited by NGF was unaffected
effect of inhibitor on neuritogenic effects of guanosine: inhibited

CN(C)c1ccc2nc3ccc(=[N+](C)C)cc-3sc2c1 [Methylene blue]
effect of inhibitor on neuritogenic action of AIT-082 (PC12 cells): inhibited the action of AIT-082
effect of inhibitor on NGF neuritogenic activity: no effect on NGF activity
effect of inhibitor on NGF neuritogenic activity (listed as MB): no effect on NGF-stimulated neurite outgrowth
effect of inhibitor on neuritogenic effects of guanosine: abolished the synergistic effects of guanosine with NGF

CCNC(=O)[C@H]1O[C@@H](n2cnc3c(N)ncnc32)[C@H](O)[C@@H]1O [NECA, 5′-N-ethylcarboxamidoadenosine]
neurite outgrowth in the absence of NGF: little stimulation of neurite outgrowth
effect on the actions of guanosine (in the presence and absence of NGF): could synergistically enhance the actions of guanosine
enhancement of NGF-induced neurite outgrowth: also enhanced neuritogenesis, but not to the same extent as guanosine

O=NO [SN, sodium nitrite]
neurite outgrowth in the absence of NGF: neither SNP nor SN elicited neurite outgrowth
enhancement of NGF-induced neurite outgrowth: enhanced NGF-mediated neurite outgrowth in a synergistic manner

C=CC1=C(C)c2cc3[n-]c(cc4[n-]c(cc5nc(cc1n2)C(C)=C5C=C)c(C)c4CCC(=O)O)c(CCC(=O)O)c3C.[Zn+2] [Zinc protoporphyrin IX]
effect of inhibitor on neuritogenic action of AIT-082 (PC12 cells): inhibited the action of AIT-082
effect of inhibitor on NGF neuritogenic activity: no effect on NGF activity
effect of inhibitor on NGF neuritogenic activity (listed as ZnPP): did not affect those of NGF
effect of inhibitor on neuritogenic effects of guanosine: abolished the neuritogenic effects of guanosine

Nc1ncnc2c1ncn2[C@@H]1O[C@H](CO)[C@@H](O)[C@H]1O [adenosine]
modification of neural activity: relatively ineffective
neurite outgrowth in the absence of NGF: slightly increased the proportion of cells with neurites
enhancement of NGF-induced neurite outgrowth: did not enhance NGF induced neurite outgrowth at any concentration

O=c1[nH]cnc2nc[nH]c12 [hypoxanthine]
modification of neural activity: relatively ineffective
stimulation of neuritogenesis and enhancement of NGF-stimulated neuritogenesis (PC12 cells): weakly effective
enhancement of NGF-induced neurite outgrowth: the greatest, although still modest, enhancement

OC[C@H]1O[C@@H](n2cnc3c(O)ncnc32)[C@H](O)[C@@H]1O [inosine]
modification of neural activity: relatively ineffective
stimulation of neuritogenesis and enhancement of NGF-stimulated neuritogenesis (PC12 cells): weakly effective
enhancement of NGF-induced neurite outgrowth: only slightly enhanced neurite outgrowth

CCCn1cnc2c1c(=O)n(CCCCC(C)=O)c(=O)n2C [propentofylline]
modification of neural activity: failed to modify neural activity

O=c1[nH]c(=O)c2[nH]cnc2[nH]1 [xanthine]
modification of neural activity: relatively ineffective
concentration toxic to the cells (PC12 cells): 300000 µM
enhancement of NGF-induced neurite outgrowth: only slightly enhanced NGF-induced neurite outgrowth

ANF: atrial natriuretic factor, a hormone activating particulate guanylyl cyclase (SLRRSSCFGGRMDRIGAQSGLGCNSFRY; ends and bridges not checked; cysteine pairing not given here; UniProt P01160 124-151, looked up)
enhancement of NGF-induced neurite outgrowth: enhanced NGF-stimulated neurite outgrowth

Methemoglobin: captures and removes nitric oxide (NO) and carbon monoxide (CO) from the culture media
effect of inhibitor on neuritogenic action of AIT-082 (PC12 cells): inhibited the action of AIT-082
effect of inhibitor on NGF neuritogenic activity: no effect on NGF activity
effect on neuritogenic properties of the NO donors: inhibited

copper protoporphyrin IX [CuPP]
effect of inhibitor on neuritogenic effects of guanosine: did not reduce the ability of guanosine to enhance NGF-dependent neurite outgrowth

hemoglobin
effect of inhibitor on neuritogenic action of AIT-082 (PC12 cells): inhibited
effect on neuritogenic properties of the NO donors: inhibited
effect of inhibitor on neuritogenic effects of guanosine: inhibited the neuritogenic effects of guanosine

From patent publication US6338963B1, “Use of carbon monoxide dependent guanylyl cyclase modifiers to stimulate neuritogenesis” (NeoTherapeutics, Inc., priority 1994, dated 2002)
